Laboratory results: patent US20260008793A1, “IONIZABLE CATIONIC LIPIDS INCORPORATING SILICON” (ALDEXCHEM KFT., priority 2022, published 2026)

Legend:
HeLa cells = assay: Transfection efficiency with Luciferase-mRNA, Nano-Glo assay (Method A); assay type: cell-based; details: 100 ng Luciferase (SecNLuc) mRNA, 24 h, luminescence
Method in brief: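 Luminescence of secreted NanoLuc in culture medium, read ~3 min after Nano-Glo reagent, reports transfection. HeLa cells grown to ~80% confluence got 100/50/10 ng mRNA per well as LNPs for 24 h, with a parallel resazurin toxicity readout.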

[1] = LNP size, PDI and zeta potential by Dynamic Light Scattering (Method A); assay type: physicochemical; details: LNP formulated by Method A; for Zeta potential (mV): 1xPBS pH 7.4; for PDI / Size (nm): DLS; for Size (nm): Luciferase-mRNA loaded
Experimental: The synthesized lipids were tested in term of in vitro transfection efficacy and toxicity on HeLa cells. In order to perform the mentioned biological tests, appropriate LNPs had to be formulated from the synthesized lipids. The formulation technique was different in Method A and B. The particle size, PDI and zeta potential of resulting LNPs were determined by means of Dynamic Light Scattering technique (DLS). Prior to biological testing the encapsulation efficiency (EE) of the loaded LNPs was determined by using RiboGreen RNA assay. In case of Method A Luciferase-mRNA while in case of Method B GFP-mRNA was transfected into the cells. In parallel with the transfection experiments, toxicity of the investigated LNPs was determined, in case of Method A resazurin assay while in case of Method B MTT assay was used. In the case of some lipids, the apparent pKa in LNPs was determined by using TNS titration based on the method described: Angew Chem Int Ed Engl. 2012, 51 (34), 8529-8533, doi: 10.1002/anie.201203263).
• 1. If needed, prepare stock solutions by solving known amounts of lipid powder into an appropriate solvent. The recommended solvent is Ethanol and the recommended concentration is typically in the range 10-50 mM. Higher concentrations are preferred to allow flexibility on mRNA-LNP concentration. • 2. Remove the lipid stock solutions from the −20° C. freezer. For long-term storage, −80° C. is used. • 3. Check the vials for precipitation, DOPE (CAS #4004-05-1) (20 mM) and DSPE-PEG (CAS #474922-26-4) (5 mM) may need a 5-30 minute incubation step at 37° C. with intermittent vortexing to resuspend all contents. […] As a last resort, lipids may be heated to 50° C. to resuspend, time should be kept as short as possible to prevent oxidation or other modifying or degradative processes. • 4. Mix the lipids by vortexing for 2 minutes. • 5. […] Cooling the solution prevent excessive evaporation of ethanol or similar solvents upon opening. • 6. Meanwhile, thaw the RNA samples, including the latest SecNLuc control, by inserting the frozen tube in a room temperature aluminium block. • 7. Prepare for each LNP-formulation with identical mRNA component, an RNA master mix according to Table 1 below in a fresh tube. Use of a master mix allows more precise comparison of lipid formulations relative to each other. Split the master mix over a number of fresh tubes equal to the number of samples+controls. Each tube contains 375 μl of mRNA in 10 mM Citrate pH 4.0. • 8. Prepare for each LNP formulation with identical lipid composition a Lipid master mix according to Table 1 below in a fresh tube, exclude the lipid of interest. Use of a master mix allows more precise comparison of the novel ionizable lipid relative to each other. Split the master mix over a number of fresh tubes equal to the number of samples+controls. Each tube contains 65.5 μl of lipid master mix. • 9. Add the ionizable lipid of interest to the equally divide lipid master mix. Mix well by pipetting up and down. Label the tube according to the ionizable lipid used. • 10. Power on the ‘L 1 formulation machine’ (L 1 FM) and allow it to do a calibration of motor positions.
• 18. Fill a fresh syringe (C) through a blunt 18 G stainless steel needle with the previously prepared RNA mixture of step 6. The volume should be approximately […] of total formulation volume+25 μl (dead-volume). Make sure to remove all air bubbles by tapping. • 19. Fill a fresh syringe (D) through a blunt 18 G stainless steel needle with the Lipid master mix. The volume should be approximately 35% of total formulation volume+25 μl (dead-volume). Again, Make sure to remove all bubbles. • 20. Attach the syringes in the correct orientation, syringe A on the left and syringe B on the right • 21. Load the ‘Receiving station’ with appropriate sized collection containers (2 ml Eppendorf tubes). • 22. Press the microfluidic chip to the back of the machine with your thumb and hold, press the ‘Button 1’ (40 g). […]

SMILES	Transfection* (Method A = 100 ng mRNA) (HeLa cells)	Zeta potential (mV) [1]	PDI [1]	Size (nm) [1]
CCCCCCCCOC(CCCCCN(CCCCO)CCCCCCOC(=O)C(CCCCCC)CCCCCCCC)O[Si](C)(C)CCCCCCCC (stereo not drawn) [Example 128, 6-((6-((dimethyl(octyl)silyl)oxy)-6-(octyloxy)hexyl)(4-hydroxybutyl)amino)hexyl 2-hexyldecanoate]	647195.5	−14.77 mV	0.107	228.6 nm
CCCCCCCCOC(CCCCCN(CCCCO)CCCCCCOC(=O)C(CCCCCC)CCCCCCCC)O[Si](C)(C)OCCCCCCCC (stereo not drawn) [Example 130, 7-(4-hydroxybutyl)-15,15-dimethyl-13-(octyloxy)-14,16-dioxa-7-aza-15-silatetracosyl 2-hexyldecanoate]	428552	−11.85 mV	0.418	587.6 nm
CC/C=C\C/C=C\C/C=C\C/C=C\C/C=C\CCCCN(CCCCO)CCCCCC(OCCCCCCCC)O[Si](C)(C)OCC(CCCCCC)CCCCCCCC (stereo not drawn) [Example 202, 16-hexyl-5-((5Z,8Z,11Z,14Z,17Z)-icosa-5,8,11,14,17-pentaen-1-yl)-13,13-dimethyl-11-(octyloxy)-12,14-dioxa-5-aza-13-silatetracosan-1-ol]	37442	−10.0 mV	0.072	154.8 nm
CCCCCCCCCCSC(CCCC)C(=O)OCCCCCCN(CCCCO)CCCCCCOC(CCCCCCC)O[Si](C)(C)O[Si](C)(C)CCCCCCCC (stereo not drawn) [Example 171, 15-heptyl-7-(4-hydroxybutyl)-17,17,19,19-tetramethyl-14,16,18-trioxa-7-aza-17,19-disilaheptacosyl 2-(decylthio)hexanoate]	302489	−12.04 mV	0.017	178.9 nm
CCCCCCCCSC(CCCCCCC)O[Si](C)(C)OCCCCCCN(CCCCO)CCCCCCO[Si](C)(C)OC(CCCCCCC)SCCCCCCCC (stereo not drawn) [Example 115, 15-heptyl-5-(10-heptyl-8,8-dimethyl-7,9-dioxa-11-thia-8-silanonadecyl)-13,13-dimethyl-12,14-dioxa-16-thia-5-aza-13-silatetracosan-1-ol]	1135215	0.3 mV	0.13	130.2 nm
CCCCCCCCCC(OCCCCCC)O[Si](C)(C)OCCCCCCN(CCCCO)CCCCCCOC(=O)C(CCCCCC)CCCCCCCC (stereo not drawn) [Example 144, 18-(4-hydroxybutyl)-10,10-dimethyl-8-nonyl-7,9,11-trioxa-18-aza-10-silatetracosan-24-yl 2-hexyldecanoate]	5688575	−10.5 mV	0.15	133.9 nm
CC/C=C\C/C=C\C/C=C\C/C=C\C/C=C\CCCCN(CCCCO)CCCCCC(OCCCCCCCC)O[Si](C)(C)O[Si](C)(C)CCCCCCCC (stereo not drawn) [Example 198, 4-(((5Z,8Z,11Z,14Z,17Z)-icosa-5,8,11,14,17-pentaen-1-yl)(6-(octyloxy)-6-((1,1,3,3-tetramethyl-3-octyldisiloxaneyl)oxy)hexyl)amino)butan-1-ol]	53096	−13.07 mV	0.004	158 nm
CCCCCCCCOC(CCCCCN(CCCCO)CCCCCCOC(=O)C(CCCCCCCC)SCCCCC)O[Si](C)(C)CCCCCCCC (stereo not drawn) [Example 177, 6-((6-((dimethyl(octyl)silyl)oxy)-6-(octyloxy)hexyl)(4-hydroxybutyl)amino)hexyl 2-(pentylthio)decanoate]	691264	−14.50 mV	0.100	166 nm
CCCCCCCCO[Si](C)(C)O[Si](C)(C)OC(CCCCCCC)OCCCCCCN(CCCCO)CCC[C@@H](C)C1CCC2C3CCC4C[C@H](OC)CC[C@]4(C)C3CC[C@@]21C (stereo partly drawn) [Example 221, 13-heptyl-5-((4R)-4-((3R,10S,13R)-3-methoxy-10,13-dimethylhexadecahydro-1H-cyclopenta[a]phenanthren-17-yl)pentyl)-15,15,17,17-tetramethyl-12,14,16,18-tetraoxa-5-aza-15,17-disilahexacosan-1-ol]	73949	−13.99 mV	0.011	142.1 nm
CCCCCCCCOC(CCCCCN(CCO)CCCCCCCC(=O)OC(CCCCCCCC)CCCCCCCC)O[Si](C)(C)O[Si](C)(C)OCCCCCCCC (stereo not drawn) [Example 192, heptadecan-9-yl 8-((2-hydroxyethyl)(6-(octyloxy)-6-((1,1,3,3-tetramethyl-3-(octyloxy)disiloxaneyl)oxy)hexyl)amino)octanoate]	11507	−12.28 mV	0.042	175.0 nm
CCCCCCCCOC(CCCCCN(CCCCO)CCCCCCOC(=O)C(CCCCCCCC)SCCCCC)O[Si](C)(C)OCCCCCCCC (stereo not drawn) [Example 179, 7-(4-hydroxybutyl)-15,15-dimethyl-13-(octyloxy)-14,16-dioxa-7-aza-15-silatetracosyl 2-(pentylthio)decanoate]	41726	−10.65 mV	0.038	189.1 nm
CCCCCCCCCCSC(CCCC)C(=O)OCCCCCCN(CCCCO)CCCCCCOC(CCCCCCC)O[Si](C)(C)OCC(CCCCCC)CCCCCCCC (stereo not drawn) [Example 175, 15-heptyl-20-hexyl-7-(4-hydroxybutyl)-17,17-dimethyl-14,16,18-trioxa-7-aza-17-silaoctacosyl 2-(decylthio)hexanoate]	119238.5	−11.78 mV	0.068	161.2 nm
CCCCCCCCOC(CCCCCCC)O[Si](C)(C)CCCCCCN(CCCCO)CCC[C@@H](C)C1CCC2C3CCC4C[C@H](OC)CC[C@]4(C)C3CC[C@@]21C (stereo partly drawn) [Example 224, 14-heptyl-5-((4R)-4-((3R,10S,13R)-3-methoxy-10,13-dimethylhexadecahydro-1H-cyclopenta[a]phenanthren-17-yl)pentyl)-12,12-dimethyl-13,15-dioxa-5-aza-12-silatricosan-1-ol]	4919513	−16.58 mV	0.08	176.5 nm
CCCCCCCCOC(CCCCCN(CCCCO)CCCCCC(OCCCCCCCC)O[Si](C)(C)O[Si](C)(C)CCCCCCCC)O[Si](C)(C)O[Si](C)(C)CCCCCCCC (stereo not drawn) [Example 107, 4-(bis(6-(octyloxy)-6-((1,1,3,3-tetramethyl-3-octyldisiloxaneyl)oxy)hexyl)amino)butan-1-ol]	3677.5	−11.69 mV	0.186	152.1 nm
CCCCCCCCO[Si](C)(C)O[Si](C)(C)OC(CCCCCCC)OCCCCCCN(CCCCO)CCCCCCOC(=O)C(CCCCCCCC)SCCCCC (stereo not drawn) [Example 184, 15-heptyl-7-(4-hydroxybutyl)-17,17,19,19-tetramethyl-14,16,18,20-tetraoxa-7-aza-17,19-disilaoctacosyl 2-(pentylthio)decanoate]	883795	−14.83 mV	0.146	237.5 nm
